Assay results published in patent publication US9073821B2, “Hydroxamic acid derivative” (priority 2010, dated 2015).

Molecular target: Pseudomonas aeruginosa LpxC enzyme (Pseudomonas aeruginosa (strain ATCC 15692 / DSM 22644 / CIP 104116 / JCM 14847 / LMG 12228 / 1C / PRS 101 / PAO1), UniProt P47205)
Assay: biochemical
Format: biochemical
Conditions: class symbols A/B/C by IC50; Table 3; read-out: Enzyme inhibitory activity (inhibitory activity on Pseudomonas aeruginosa LpxC enzyme)
Protocol: Test 1: Evaluation of the Inhibitory Activity on Pseudomonas aeruginosa LpxC Enzyme
An inhibition curve was constructed for each test compound by performing the aforementioned reaction at varying concentrations of the test compound. From this inhibition curve, the concentration of the test compound at which the formation of the reaction product was suppressed by 50% was determined as the IC50 of the test compound, which was an index for the inhibitory activity on Pseudomonas aeruginosa LpxC enzyme.

IC50 [µM] | Structure (SMILES)
0.01 to 0.1 | CNC(=O)C(C(=O)NO)N(C)C(=O)c1ccc(C#Cc2ccc(CN3CC(C)(C)C3)cc2)cc1 (stereo not shown) [Compound 525, 2-[{[4-({4-[(3,3-dimethylazetidin-1-yl)methyl]phenyl}ethynyl)phenyl]carbonyl}(methyl)amino]-N-hydroxy-N′-methylpropanediamide]
0.01 to 0.1 | CNC(=O)C(C(=O)NO)N(C)C(=O)c1ccc(C#Cc2ccc(CN3CC4(CCC4)C3)cc2)cc1 (stereo not shown) [Compound 524, 2-{[(4-{[4-(2-azaspiro[3.3]hept-2-ylmethyl)phenyl]ethynyl}phenyl)carbonyl](methyl)amino}-N-hydroxy-N′-methylpropanediamide]
< 0.01 | CCOC1CN(Cc2ccc(C#Cc3ccc(C(=O)N(C)C(C(=O)NC)C(=O)NO)cc3)c(C(F)(F)F)c2)C1 (stereo not shown) [Compound 574, 2-[{[4-({4-[(3-ethoxyazetidin-1-yl)methyl]-2-(trifluoromethyl)phenyl}ethynyl)phenyl]carbonyl}(methyl)amino]-N-hydroxy-N′-methylpropanediamide]

Same assay, conditions: inhibitory activity on Pseudomonas aeruginosa LpxC enzyme, class symbols A/B/C; read-out: Enzyme inhibitory activity

IC50 [µM] | Structure (SMILES)
> 0.1 | CNC(=O)C(C(=O)NO)N(C)C(=O)c1ccc(Cc2ccccc2)cc1 (stereo not shown) [Compound 445, 2-{[(4-benzylphenyl)carbonyl](methyl)amino}-N-hydroxy-N′-methylpropanediamide]
0.01 to 0.1 | CNC(=O)C(C(=O)NO)N(C)C(=O)c1ccc(OCC#Cc2ccccc2)cc1 (stereo not shown) [Compound 453, N-hydroxy-N′-methyl-2-[methyl({4-[(3-phenylprop-2-yn-1-yl)oxy]phenyl}carbonyl)amino]propanediamide]
< 0.01 | CNC(=O)C(C(=O)NO)N(C)C(=O)c1ccc(-c2ccc(OCCCN3CCSCC3)cc2)cc1 (stereo not shown) [Compound 288, N-hydroxy-N′-methyl-2-[methyl({4′-[3-(thiomorpholin-4-yl)propoxy]biphenyl-4-yl}carbonyl)amino]propanediamide]
0.01 to 0.1 | CNC(=O)C(C(=O)NO)N(C)C(=O)c1ccc(-c2ccc(CNC3CC3)cc2)cc1 (stereo not shown) [Compound 205, 2-[({4′-[(cyclopropylamino)methyl]biphenyl-4-yl}carbonyl)(methyl)amino]-N-hydroxy-N′-methylpropanediamide]
< 0.01 | CNC(=O)C(C(=O)NO)N(C)C(=O)c1ccc(-c2ccc(C#CCN3CCOCC3)cc2)cc1 (stereo not shown) [Compound 390, N-hydroxy-N′-methyl-2-[methyl({4′-[3-(morpholin-4-yl)prop-1-yn-1-yl]biphenyl-4-yl}carbonyl)amino]propanediamide]
0.01 to 0.1 | CNC(=O)C(C(=O)NO)N(C)C(=O)c1ccc(-c2ccc(CNC(C)=O)cc2)cc1 (stereo not shown) [Compound 241, 2-[({4′-[(acetylamino)methyl]biphenyl-4-yl}carbonyl)(methyl)amino]-N-hydroxy-N′-methylpropanediamide]

More lines, now with the values behind:

Structure (SMILES) | IC50 [µM]
CNC(=O)C(C(=O)NO)N(C)C(=O)c1ccc(-c2ccc(N3CCC(CN4CCOCC4)C3)cc2)cc1 (stereo not shown) [Compound 287, N-hydroxy-N′-methyl-2-[methyl({4′-[3-(morpholin-4-ylmethyl)pyrrolidin-1-yl]biphenyl-4-yl}carbonyl)amino]propanediamide] | < 0.01
CNC(=O)C(C(=O)NO)N(C)C(=O)c1ccc(-c2ccc3nonc3c2)cc1 (stereo not shown) [Compound 189, 2-{[4-(2,1,3-benzoxadiazol-5-yl)benzoyl](methyl)amino}-N-hydroxy-N′-methylpropanediamide] | 0.01 to 0.1
CNC(=O)C(C(=O)NO)N(C)C(=O)c1ccc(-c2ccc(OCCCCOC)cc2)cc1 (stereo not shown) [Compound 215, N-hydroxy-2-[{[4′-(4-methoxybutoxy)biphenyl-4-yl]carbonyl}(methyl)amino]-N′-methylpropanediamide] | < 0.01
CNC(=O)C(C(=O)NO)N(C)C(=O)c1ccc(/C=C/c2ccccc2)cc1 (stereo not shown) [Compound 63, N-hydroxy-N′-methyl-2-(methyl {4-[(E)-2-phenylethenyl]benzoyl}amino)propanediamide] | 0.01 to 0.1
CNC(=O)C(C)(C(=O)NO)N(C)C(=O)c1ccc(-c2ccc(C)cc2)cc1 (stereo not shown) [Compound 349, N-hydroxy-N′,2-dimethyl-2-{methyl[(4′-methylbiphenyl-4-yl)carbonyl]amino}propanediamide] | < 0.01
CNC(=O)C(C(=O)NO)N(CC(F)F)C(=O)c1ccc(-c2ccc(OCCCN3CCOCC3)cc2)cc1 (stereo not shown) [Compound 225, 2-[(2,2-difluoroethyl)({4′-[3-(morpholin-4-yl)propoxy]biphenyl-4-yl}carbonyl)amino]-N-hydroxy-N′-methylpropanediamide] | < 0.01
CNC(=O)C(C(=O)NO)N(C)C(=O)c1ccc(-c2cc(F)c(F)c(F)c2)cc1 (stereo not shown) [Compound 220, N-hydroxy-N′-methyl-2-{methyl[(3′,4′,5′-trifluorobiphenyl-4-yl)carbonyl]amino}propanediamide] | 0.01 to 0.1
CNC(=O)C(C(=O)NO)N(C)C(=O)c1ccc(-c2cc(F)c(NC)cc2F)cc1 (stereo not shown) [Compound 67, 2-[{[2′,5′-difluoro-4′-(methylamino)biphenyl-4-yl]carbonyl}(methyl)amino]-N-hydroxy-N′-methylpropanediamide] | < 0.01
CNC(=O)C(C(=O)NO)N(C)C(=O)c1ccc(-c2ccc(OCCCn3ccnc3)cc2)cc1 (stereo not shown) [Compound 96, N-hydroxy-2-[({4′-[3-(1H-imidazol-1-yl)propoxy]biphenyl-4-yl}carbonyl)(methyl)amino]-N′-methylpropanediamide] | < 0.01
CNC(=O)C(C(=O)NO)N(C)C(=O)c1ccc(-c2ccc3c(c2)OCCO3)cc1 (stereo not shown) [Compound 81, 2-{[4-(2,3-dihydro-1,4-benzodioxin-6-yl)benzoyl](methyl)amino}-N-hydroxy-N′-methylpropanediamide] | < 0.01
CN(C)C(=O)CNC(=O)C(NC(=O)c1ccc(-c2ccc(OCCO)cc2)cc1)C(=O)NO (stereo not shown) [Compound 144, N-[2-(dimethylamino)-2-oxoethyl]-N′-hydroxy-2-({[4′-(2-hydroxyethoxy)biphenyl-4-yl]carbonyl}amino)propanediamide] | < 0.01
CNC(=O)C(C(=O)NO)N(C)C(=O)c1ccc(-c2ccc(OCC(F)CN3CCOCC3)cc2)cc1 (stereo not shown) [Compound 283, 2-[({4′-[2-fluoro-3-(morpholin-4-yl)propoxy]biphenyl-4-yl}carbonyl)(methyl)amino]-N-hydroxy-N′-methylpropanediamide] | < 0.01
CCCCCNc1ccc(-c2ccc(C(=O)N(C)C(C(=O)NC)C(=O)NO)cc2)cn1 (stereo not shown) [Compound 475, N-hydroxy-N′-methyl-2-[methyl({4-[6-(pentylamino)pyridin-3-yl]phenyl}carbonyl)amino]propanediamide] | 0.01 to 0.1
CNC(=O)C(C(=O)NO)N(C(=O)c1ccc(-c2ccccc2)cc1)C1CC1 (stereo not shown) [Compound 127, 2-[(Biphenyl-4-ylcarbonyl)(cyclopropyl)amino]-N-hydroxy-N′-methylpropanediamide] | < 0.01
CNC(=O)C(C(=O)NO)N(C)C(=O)c1ccc(-c2ncccn2)cc1 (stereo not shown) [Compound 311, N-hydroxy-N′-methyl-2-(methyl {[4-(pyrimidin-2-yl)phenyl]carbonyl}amino)propanediamide] | > 0.1
CNC(=O)C(C(=O)NO)N(C(=O)c1ccc(-c2ccc(OCCCN3CCOCC3)cc2)cc1)C1CC1 (stereo not shown) [Compound 198, 2-[cyclopropyl({4′-[3-(morpholin-4-yl)propoxy]biphenyl-4-yl}carbonyl)amino]-N-hydroxy-N′-methylpropanediamide] | < 0.01
